In one assay the test system is test microorganisms. As to conditions: cited from earlier work.
The subject of the next assay is S. aureus ATCC 6538. In words: quantitative suspension assay of mono-substances. It is filed as cell-based, Staphylococcus aureus. To be noted: for Number of CFUs: initial cell load 9.9 × 10^4 CFU/ml. The protocol:
A stock solution was prepared by adding 0.1 ml methanol to 10.48 mg of hydroxytyrosol. After dissolving of the compound, the solution was quantitatively transferred into 4.9 ml water for injection (WFI), effective concentration of hydroxytyrosol: 2.0 mg/ml.
Using the stock solution, five (5) concentrations of hydroxytyrosol in a geometric series of 2 mg hydroxytyrosol/ml to 0.125 mg hydroxytyrosol/ml were tested in a quantitative suspension assay.
2 ml of the stock solution and the dilutions (V1 to V4), respectively, and a methanol-solution of 2% as a positive control were inoculated with 0.1 ml of a test suspension of S. aureus ATCC 6538, adjusted to about 2.0×10^5 CFU/0.1 ml, resulting in about 100,000 CFU/ml in the individual assays.
Samples (0.1 ml) were then taken at t 0, 12, 30, and 60 minutes as well as t 24 48, and 72 hours after inoculation and culturing at between 20-25° C., and were diluted with 0.9 ml of 0.9% NaCl solution. The samples were plated on blood agar plates, and incubated up to 5 days at between 30-35° C.
A stock solution was prepared at a concentration of 2 mg/ml of oleocanthal. The compound was dissolved by in ethanol (99.8%) and WFI was added.
Using the stock solution, concentrations of oleocanthal in a geometric series of 1 mg oleocanthal/ml to 0.125 mg oleocanthal/ml were tested in a quantitative suspension assay.
2 ml of the stock solution and the dilutions (V1 to V4), respectively, and a ethanol-solution of 2.85% as a positive control were inoculated with 0.055 ml of a test suspension of S. aureus ATCC 6538, adjusted to about 3.6×10^5 CFU/0.1 ml, resulting in about 99,000 CFU/ml in the individual assays.
A stock solution was prepared at a concentration of 1 mg/ml of oleacin. The compound was dissolved by in ethanol (99.8%) and WFI was added.
Using the stock solution, concentrations of oleacin at 0.25 mg oleacin/ml and 0.125 mg oleacin/ml were tested in a quantitative suspension assay.
2 ml of the stock solution and the dilutions (V1 and V2), respectively, and a ethanol-solution of 0.44% as a positive control were inoculated with 0.055 ml of a test suspension of S. aureus ATCC 6538, adjusted to about 3.5×10^5 CFU/0.1 ml, resulting in about 99,000 CFU/ml in the individual assays.
A stock solution was prepared by adding 0.1 ml chloroform to 25 mg of uvaol. After dissolving of the compound, the solution was quantitatively transferred into 12.4 ml water for injection (WFI), effective concentration of uvaol: 2.0 mg/ml.
Using the stock solution, five (5) concentrations of uvaol in a geometric series of 2 mg uvaol/ml to 0.125 mg uvaol/ml were tested in a quantitative suspension assay.
2 ml of the stock solution and the dilutions (V1 to V4), respectively, and a chloroform-solution of 0.8% as a positive control were inoculated with 0.1 ml of a test suspension of S. aureus ATCC 6538, adjusted to about 2.0×10^5 CFU/0.1 ml, resulting in about 100,000 CFU/ml in the individual assays.
A stock solution was prepared by adding 0.1 ml chloroform to 10.45 mg of erythrodiol. After dissolving of the compound, the solution was quantitatively transferred into 4.9 ml water for injection (WFI), effective concentration of erythrodiol: 2.0 mg/ml.
2 ml of the stock solution and the dilutions (V1 to V4), respectively, and a chloroform-solution of 2% as a positive control were inoculated with 0.1 ml of a test suspension of S. aureus ATCC 6538, adjusted to about 3.6×10^5 CFU/0.1 ml, resulting in about 100.000 CFU/ml in the individual assays.

These results are taken from patent publication US20220395549A1, “COMPOSITIONS OF THE OLEA EUROPAEA V. SYLVESTRIS WITH ANTIMICROBIAL EFFICACY” (TAPROGGE GMBH, priority 2019, published 2022).

Bounds are passed on as bounds.

For `COc1cc(C(=O)O)cc(OC)c1O` [syringic acid], the “antimicrobial activities of phenolic compounds” value with test microorganisms is “ineffective”.
As for `C/C=C(/C=O)[C@@H](CC=O)CC(=O)OCCc1ccc(O)cc1` [oleocanthal], the “Number of CFUs” value with S. aureus ATCC 6538 (0.125 Ole/ml, t 0 min) is on record as 2.0 × 10^4 CFU/ml; with S. aureus ATCC 6538 (0.125 Ole/ml, t 12 min) it was 1.6 × 10^4 CFU/ml; with S. aureus ATCC 6538 (0.125 Ole/ml, t 30 min), 1.6 × 10^4 CFU/ml; in the assay on S. aureus ATCC 6538 (0.125 Ole/ml, t 60 min), 1.1 × 10^4 CFU/ml; in the assay with S. aureus ATCC 6538 (0.125 Ole/ml, t 24 h) it was 5.4 × 10^3 CFU/ml; in the assay with S. aureus ATCC 6538 (0.125 Ole/ml, t 48 h), less than 100 CFU/ml. Moreover, the “Number of CFUs” value in the assay with S. aureus ATCC 6538 (0.125 Ole/ml, t 72 h) was less than 100 CFU/ml; in the assay on S. aureus ATCC 6538 (0.25 Ole/ml, t 0 min), 1.7 × 10^4 CFU/ml; in the assay on S. aureus ATCC 6538 (0.25 Ole/ml, t 12 min), 1.8 × 10^4 CFU/ml; in the assay with S. aureus ATCC 6538 (0.25 Ole/ml, t 30 min) it was 2.0 × 10^4 CFU/ml; in the assay with S. aureus ATCC 6538 (0.25 Ole/ml, t 60 min), 1.6 × 10^4 CFU/ml; with S. aureus ATCC 6538 (0.25 Ole/ml, t 24 h), 7.2 × 10^3 CFU/ml. Also, the “Number of CFUs” value in the assay with S. aureus ATCC 6538 (0.25 Ole/ml, t 48 h) is listed as 8.3 × 10^3 CFU/ml; in the assay with S. aureus ATCC 6538 (0.25 Ole/ml, t 72 h), less than 100 CFU/ml; with S. aureus ATCC 6538 (0.5 Ole/ml, t 0 min) it was 8.3 × 10^3 CFU/ml; in the assay with S. aureus ATCC 6538 (0.5 Ole/ml, t 12 min), 6.1 × 10^3 CFU/ml; in the assay with S. aureus ATCC 6538 (0.5 Ole/ml, t 30 min), 5.1 × 10^3 CFU/ml; with S. aureus ATCC 6538 (0.5 Ole/ml, t 60 min) it was 2.4 × 10^3 CFU/ml. In addition, the “Number of CFUs” value in the assay with S. aureus ATCC 6538 (0.5 Ole/ml, t 24 h) is listed as less than 100 CFU/ml; with S. aureus ATCC 6538 (0.5 Ole/ml, t 48 h), less than 100 CFU/ml; in the assay with S. aureus ATCC 6538 (0.5 Ole/ml, t 72 h), less than 100 CFU/ml; with S. aureus ATCC 6538 (1.0 Ole/ml, t 0 min), less than 100 CFU/ml; in the assay with S. aureus ATCC 6538 (1.0 Ole/ml, t 12 min), less than 100 CFU/ml; in the assay with S. aureus ATCC 6538 (1.0 Ole/ml, t 30 min), less than 100 CFU/ml. Also, the “Number of CFUs” value with S. aureus ATCC 6538 (1.0 Ole/ml, t 60 min) is less than 100 CFU/ml; in the assay with S. aureus ATCC 6538 (1.0 Ole/ml, t 24 h), less than 100 CFU/ml; in the assay on S. aureus ATCC 6538 (1.0 Ole/ml, t 48 h), less than 100 CFU/ml; in the assay on S. aureus ATCC 6538 (1.0 Ole/ml, t 72 h) it was less than 100 CFU/ml; in the assay with S. aureus ATCC 6538 (2.0 Ole/ml, t 0 min), less than 100 CFU/ml; in the assay with S. aureus ATCC 6538 (2.0 Ole/ml, t 12 min), less than 100 CFU/ml. The “Number of CFUs” value with S. aureus ATCC 6538 (2.0 Ole/ml, t 30 min) is recorded as less than 100 CFU/ml; in the assay on S. aureus ATCC 6538 (2.0 Ole/ml, t 60 min), less than 100 CFU/ml; with S. aureus ATCC 6538 (2.0 Ole/ml, t 24 h) it was less than 100 CFU/ml; in the assay on S. aureus ATCC 6538 (2.0 Ole/ml, t 48 h), less than 100 CFU/ml; in the assay on S. aureus ATCC 6538 (2.0 Ole/ml, t 72 h) it was less than 100 CFU/ml. Also, the “antimicrobial effect, summary in words” value in the assay with S. aureus ATCC 6538 (detection limit of the assay 100 CFU/ml) was “immediate effect at the higher concentrations”.
